Experimental data taken from patent US4420481A, “Use of piperazine compounds as immunopotentiating agents” (Mitsuitoatsu Chemicals Inc., priority 1980, dated 1983).
Where a name gives a salt, the structure may show the parent alone.

What was measured:
[1] = tested on: adjuvant arthritis; experiment: Test 2: Adjuvant Arthritis Test; assay type: in vivo, SD male rats; conditions: rat, 5 mg/Kg subcutaneous, 9 times, left hind leg, * P<0.05, ** P<0.01
[2] = tested on: Sarcoma 180; experiment: Test 5: Test of Carcinostatic Effect to Sarcoma 180 by Subcutaneous Administration; assay type: in vivo, ICR female mice; conditions: 20 mg/Kg subcutaneous
Experimental: To the control group, a physiological saline solution was similarly administered. […] The diameter D (mm) of the tumor was measured, and the average value and the number N of the living mice were determined to obtain results shown in Table 4.

[3] = tested on: EL-4 leukemic cells; experiment: Test 3: In-Vitro Test of Inhibition of Growth of Cancer Cell by Macrophage; assay type: cell-based
Experimental: The results of the test of the action of the effective ingredient of the present invention on the macrophage will now be described with reference to the following Test 3. More specifically, the separated macrophage and EL-4 leukemic cell were mixed and cultured, and ^3 H-thymidine was added to a culture medium and the quantity of ^3 H-thymidine incorporated into the EL-4 cell was determined to examine the activity of the macrophage. When the macrophage is activated by administration of the effective ingredient of the present invention, inhibition of the growth of EL-4 cell, that is, phagocytosis of the cancer cell by the macrophage, is observed. Accordingly, if the take-in amount of ^3 H-thymidine is measured and this amount is reduced, it is confirmed that the macrophage has been activated. […] The dose was 8 mg per Kg of the body weight. To the control group, a physiological saline solution was similarly administered. After passage of 4 days, exuded abdominal cells were collected and deposited on a plastic Petri dish to collect microphages. Then, 1×10^6 of so obtained macrophages and 1×10^5 of EL-4 leukemic cells of C57 BL/6J mouse were mixed with cultured in an RPM1 1640 culture medium to which 10% of bovine embryo serum was added (at 37° C. in the presence of 5% of CO2) for 24 hours. Then, 0.1μ Ci of ^3 H-thymidine was added and culturing was further conducted for 16 hours. Cells were collected on a filter paper from the culture medium and the amount of ^3 H-thymidine taken in was determined by a liquid scintillation counter. […] For comparison, the test was similarly carried out by using Levamisol hydrochloride. Results

[4] = tested on: delayed hypersensitivity; experiment: Test 1: Test of Reinforcement of Delayed Hypersensitivity; assay type: in vivo, ICR male mice; conditions: mouse, in vivo
From the text: Various test systems using animals have been proposed for determining the immunopotensiative action. Results of the test of reinforcement of the delayed hypersensitivity, which is a typical test among these tests, will now be described.
This system was used for the test of reinforcement of the delayed hypersensitivity.
One groups of eight ICR male mice, each having a body weight of about 30 g, were used for the test.
Sensitization was effected by coating a 7% solution of picryl chloride in a 4/1 mixture of olive oil and acetone on the shaved abdomen of the mouse.
Simultaneously with sensitization, a solution or suspension of the compound of the present invention in a 0.2% solution of carboxymethyl cellulose in a physiological saline solution was orally administered to the mouse at a dose of 50 mg per Kg of the body weight. To the control group, a 0.2% carboxymethyl cellulose solution in a physiological saline solution was similarly administered.
The delayed hypersensitivity was challenged 7 days after sensitization by gripping the ear of the mouse by a forceps wrapped with a felt impregnated with a 1% solution of picryl chloride in olive oil and coating the ear with the solution. The thickness of the ear was measured before challenging and 24 hours after challenging and the ratio of increase of the thickness (average value of both the ears in eight mice±standard deviation) was obtained as shown in Table 1.
For comparison, the test was similarly carried out by using Levamisol hydrochloride, and the obtained results are shown in Table 1. F.t tests were carried out. The group in which the test result was significant at a level of P<0.05 was marked by *, and the group in which the test result was significant at a level of P<0.01 ws marked by **.

[5] = tested on: Sarcoma 180; experiment: Test 4: Test of Antitumor Effect to Sarcoma 180 by Oral Administration; assay type: in vivo, ICR female mice; conditions: for D: average diameter of tumor: 100 mg/Kg oral once a day, 10 days
Experimental: To the control group, a physiological saline solution was similarly administered. The dose of the compound was 100 mg per Kg of the body weight. The diameter D (mm) of the tumor was measured, and the average value and the number N of the living mice were determined to obtain results shown in Table 4.

With c1ccc([C@H]2CN3CCSC3=N2)cc1 [Levamisole.hydrochloride, reference compound] the “Swelling Ratio (average value ± standard variation)” value (shortened to “Swelling Ratio”) ([1]; 15 days, control 84.4 ± 9.0) was 65.2 ± 5.9%, the “Swelling Ratio” value ([1]; 18 days, control 103.2 ± 9.7) was 69.3 ± 7.1% and the “Swelling Ratio” value ([1]; 21 days, control 107.5 ± 13.3) was 80.7 ± 9.6%. For the same molecule, the “N: number of living mice” value ([2]; 0 weeks, control 6) was 6, the “carcinostatic activity (in words)” value [2] was “no substantial carcinostatic activity” and the “N: number of living mice” value ([2]; 2 weeks, control 6) was 6. The “D: average diameter of tumor” value ([2]; 2 weeks, control 10.8) was 7.7 mm, the “N: number of living mice” value ([2]; 4 weeks, control 6) was 6 and the “D: average diameter of tumor” value ([2]; 4 weeks, control 16.6) was 14.8 mm. For the same molecule, the “N: number of living mice” value ([2]; 6 weeks, control 6) was 6, the “D: average diameter of tumor” value ([2]; 6 weeks, control 20.3) was 14.4 mm and the “N: number of living mice” value ([2]; 8 weeks, control 4) was 3. The “D: average diameter of tumor” value ([2]; 8 weeks, control 31.2) was 30.2 mm, the “N: number of living mice” value ([2]; 10 weeks, control 1) was 2 and the “D: average diameter of tumor” value ([2]; 10 weeks, control 40.5) was 31.6 mm. The “activation of macrophage / phagocytosis of cancer cells (in words)” value ([3]; 8 mg/Kg intraperitoneal) was “hardly exhibits such action”, the “inhibition of take-in of 3H-thymidine by EL-4 leukemic cells (in words)” value ([3]; 8 mg/Kg intraperitoneal) was “does not exhibit such action” and the “Take-In Ratio of 3H-thymidine (average value)” value ([3]; 8 mg/Kg intraperitoneal to mice, macrophages collected after 4 days, with EL-4 cells, control 80.2) was 49.0%. For the same molecule, the “Ratio of Increase of Ear Thickness (average value ± Standard Variation)” value [4] was 35.6 ± 2.4%, the “N: number of living mice” value ([5]; 0 weeks, 100 mg/Kg oral, control 6) was 6 and the “carcinostatic action (in words)” value ([5]; 100 mg/Kg oral, repeated) was “no substantial carcinostatic action was observed”. For the same molecule, the “D: average diameter of tumor” value ([5]; 2 weeks, control 10.6) was 10.2 mm, the “N: number of living mice” value ([5]; 2 weeks, 100 mg/Kg oral, control 6) was 6 and the “D: average diameter of tumor” value ([5]; 4 weeks, control 15.2) was 16.2 mm. The “N: number of living mice” value ([5]; 4 weeks, 100 mg/Kg oral, control 6) was 6, the “D: average diameter of tumor” value ([5]; 6 weeks, control 22.4) was 20.7 mm and the “N: number of living mice” value ([5]; 6 weeks, 100 mg/Kg oral, control 6) was 6. For the same molecule, the “D: average diameter of tumor” value ([5]; 8 weeks, control 31.5) was 29.6 mm, the “N: number of living mice” value ([5]; 8 weeks, 100 mg/Kg oral, control 5) was 6 and the “D: average diameter of tumor” value ([5]; 10 weeks, control 37.6) was 28.1 mm. For the same molecule, the “N: number of living mice” value ([5]; 10 weeks, 100 mg/Kg oral, control 1) was 6.
